Laboratory results from US10718028B2, “Fluorescent probes for abasic site detection” (CASE WESTERN RESERVE UIVERSITY, priority 2015, dated 2020).

Tests used:
AP DNA = experiment: SSB activity assay, dose-response of AP site binding probes; assay type: biochemical; details: 5 pmol AP DNA, FIG. 1
Procedure: FIG. 1 illustrates SSB activity assay is used to compare the dose-response of AP site binding probes in 5 pmol of AP DNA. Mean and standard deviation of triplicate samples are shown for each concentration.
The single strand break (SSB) assay was proposed as a quick, facile tool to screen AP site binding probes. Therefore, the assay was performed on novel AP site binding probes described above and the commercially available AP site binding probe, F422. […] The reduced response of F422 and DansylMX may be due in part to the compounds being fairly electron rich near the aminooxy binding moiety. This could lead to a Coulombic repulsion with the DNA phosphate backbone.
SSB activity assays were performed on a 40-mer duplex DNA synthesized by IDT with the sequence:
(§1) SSB Activity Assay Control Reactions

UDG = molecular target: T1, UDG (Escherichia coli, UniProt P12295); experiment: SSB activity assay UDG inhibition; assay type: biochemical; details: UDG 10 min pretreatment vs simultaneous UDG and Cy7MX
T1 construct: purchased New England BioLabs
Procedure: FIG. 8 illustrates the evaluation of UDG inhibition by Cy7MX. Time course represents incubation time of U:A DNA before APE addition with UDG alone, 10 minutes UDG pretreatment then Cy7MX, and UDG and Cy7MX without pretreatment.
Method UDG (10 min)+Cy7MX: All samples were prepared in triplicate.
Method UDG+Cy7MX: All samples were prepared in triplicate. […] Samples were incubated at 37° C. in the dark for 2 min, 10 min, 30 min, 60 min, or 180 min.
Method UDG: As in method UDG+Cy7MX except substitute DMSO (2 μL) for Cy7MX.
Likewise, the potential of Cy7MX to inhibit UDG, either through direct interaction with the enzyme or by binding to DNA and blocking the uracil substrate, was tested. To accomplish this, U:A DNA was incubated with UDG for a fixed time prior to addition of Cy7MX (FIG. 8, UDG (10 min)+Cy7MX). In this case, Cy7MX could not interfere with the activity of UDG.

U:A-paired DNA = experiment: SSB activity assay control reactions; assay type: biochemical
Procedure: as §1
Samples were prepared in triplicate.
After evaluating the fluorescence properties of Cy7MX, its ability to bind to AP sites was examined We developed an assay using a fluorescently tagged dsDNA (double stranded DNA) oligonucleotide with a single uracil incorporated into the labeled strand (FIG. 5A). A green emitting hexachlorofluorescein (HEX) label was incorporated at the 5′ end of the sense strand in order to avoid overlapping with the NIR fluorecent emission of Cy7MX. We expected that treatment of this oligomer with UDG would generate an AP site and subsequent treatment with APE would produce a single strand break. This break could be visualized by denaturing gel electrophoresis to reveal a 16mer single strand DNA (ssDNA) instead of the 40mer parent (FIG. 5B). However, we hypothesized that if the oligomer were treated with Cy7MX prior to APE treatment, the covalent Cy7MX:AP site lesion would not be recognized by APE as a substrate and no SSB would form.

DLD1 WT cells = experiment: MMS treatment, isolation, and Cy7MX analysis of DLD1 DNA; assay type: cell-based; details: 3 h MMS exposure, 1 h Cy7MX
Procedure: DLD1 shControl (WT) cells at a density of 3 million cells per dish were plated in Falcon brand 100×20 mm cell culture dishes in 10 mL medium (DMEM supplemented with 10% heat inactivated FBS, penicillin/streptomycin, and nonessential amino acids) and incubated 16 h at 37° C. and 5% CO2 to ensure adhesion. Solutions of MMS were prepared in serum free DMEM medium at concentrations of 0.05, 0.25, 1, 4, and 10 mM. Medium was removed from the cells and replaced with the MMS or a serum free medium vehicle. Three plates were prepared per treatment group. Cells were incubated at 37° C. and 5% CO2 with continuous MMS exposure for 3 h. At the time points, cells were collected and DNA isolated as described above (Treatment of DLD1 cells with FUDR).
Pure DNA pellets were suspended in 190 μL water. A solution of Cy7MX (10 μL, final=25 μM) was added to each sample, keeping the stock solution and all treated samples vigorously in the dark until the final analysis. Samples were incubated with Cy7MX for 1 h at 37° C. in the dark. After incubation, DNA was purified and analyzed as described above.
Methyl methanesulfonate (MMS) is a methylating agent used to induce AP sites in cells. An MMS dose-response in DLD1 WT cells was performed for a 3 h treatment time. […] Fluorescence was measured following ethanol precipitation purification.

[1] = Optical properties of Cy7MX in various solvents (Example 2); assay type: physicochemical
Source text: Fluorescence quantum yield measurements. Fluorescent quantum yields determined by a comparative method to an indocyanine green (ICG) standard (F=0.132 in EtOH) with refractive index correction according to the equation:
[formula] • where F is the quantum yield; m is the slope of the integrated fluorescence intensity as a function of absorbance maxima; n is the refractive index of the solvent (EtOH, 1.3611; MeCN, 1.3442; H2O, 1.333; and CHCl3, 1.4459); and R is the reference sample, ICG in EtOH. Data were collected in a quartz cuvette with a 1 cm path length. Absorbance maxima for each sample were kept at or below 0.2 absorbance units to avoid inner filter effects. Fluorophores were excited at 700 nm and emission spectra integrated from 705 to 1000 nm. Solvents used were spectroscopic grade ethanol and HPLC grade acetonitrile, HPLC grade chloroform, and HPLC grade water. For the water solution, Cy7MX was first dissolved in MeCN and diluted at least 200 fold. SSB Activity Assay General Procedures
The absorption and fluorescence properties of Cy7MX were then evaluated in relatively nonpolar (CHCl3), polar aprotic (MeCN), and polar protic (EtOH and H2O) solvents. […] Likewise, the quantum yields of Cy7MX in these solvents compare favorably with other cyanine dyes (Table 3).

T1 sequence (P12295 whole entry): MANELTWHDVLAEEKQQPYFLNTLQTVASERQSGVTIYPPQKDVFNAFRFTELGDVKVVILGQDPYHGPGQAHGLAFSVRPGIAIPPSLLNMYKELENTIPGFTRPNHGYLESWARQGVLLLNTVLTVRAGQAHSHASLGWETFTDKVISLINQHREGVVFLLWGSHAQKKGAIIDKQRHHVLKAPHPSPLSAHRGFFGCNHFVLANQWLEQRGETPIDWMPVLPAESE

CCCN1/C(=C/C=C2\CCCC(/C=C/C3=[N+](CCC)c4ccccc4C3(C)C)=C2Oc2ccc(CC(=O)NCCCON)cc2)C(C)(C)c2ccccc21 [Cy7MX, 2-((E)-2-((E)-2-(4-(2-((3-(aminooxy)propyl)amino)-2-oxoethyl)phenoxy)-3-((E)-2-(3,3-dimethyl-1-propylindolin-2-ylidene)ethylidene)cyclohex-1-en-1-yl)vinyl)-3,3-dimethyl-1-propyl-3H-indol-1-ium 2,2,2-trifluoroacetate]
dose-response and overall efficacy in SSB assay (AP DNA): acceptable dose-response and overall efficacy | UDG inhibition (UDG): does not inhibit UDG activity | SSB activity of the probe itself (U:A-paired DNA; U:A-paired DNA treated with Cy7MX alone (no enzymes)): no SSB activity | SSB activity (U:A-paired DNA; U:A-paired DNA with Cy7MX together with UDG and APE): the SSB activity was reduced | detection of AP sites in DNA of MMS treated cells (DLD1 WT cells): sensitive to the quantity of AP sites induced by mM concentrations of MMS | Φ ([1]; CHCl3): 38.2% | λabs ([1]; CHCl3): 770 nm | λem ([1]; CHCl3): 791 nm | absorption maximum ([1]; CHCl3, MeCN, EtOH and H2O): ~770 nm | emission maximum ([1]; CHCl3, MeCN, EtOH and H2O): ~790 nm | solvatochromic shifts ([1]; CHCl3, MeCN, EtOH and H2O): No solvatochromic shifts were observed | Φ ([1]; EtOH): 39.3% | ε ([1]; EtOH): 127,000 M−1cm−1 | λabs ([1]; EtOH): 770 nm | λem ([1]; EtOH): 796 nm | Φ ([1]; H2O): 6.6% | ε ([1]; H2O): 140,000 M−1cm−1 | λabs ([1]; H2O): 767 nm | λem ([1]; H2O): 790 nm | Φ ([1]; MeCN): 48.7% | ε ([1]; MeCN): 154,000 M−1cm−1 | λabs ([1]; MeCN): 767 nm | λem ([1]; MeCN): 789 nm
